Results as given in ChEMBL document CHEMBL5375967 (J Med Chem, 2023).
In brackets after ≈: the same amount, converted by molar mass.

What was measured:
[1] = physchem; details: buffer, pH 6.8
[2] = molecular target: T1, Voltage-gated inwardly rectifying potassium channel KCNH2 (Homo sapiens, UniProt Q12809)
[3] = in vitro; details: mouse, liver microsomes
[4] = in vitro; details: human, liver microsomes
[5] = in vitro; details: rat, liver microsomes
[6] = physchem; details: octanol/water, pH 7.4
[7] = in vitro; details: dog, MDCK
[8] = molecular target: T1, Voltage-gated inwardly rectifying potassium channel KCNH2; remark: listed apart in the source
[9] = molecular target: T1, Voltage-gated inwardly rectifying potassium channel KCNH2; remark: listed apart in the source
[10] = in vivo; details: Sprague-Dawley, rat, iv, 1 mg/kg
[11] = in vivo; details: Sprague-Dawley, rat, po, 3 mg/kg
[12] = in vivo; details: Sprague-Dawley, rat, iv, 1 mg/kg; remark: listed apart in the source
[13] = in vivo; details: C57BL/6, mouse, po, 10 mg/kg
[14] = in vivo; details: C57BL/6, mouse, po, 10 mg/kg; remark: listed apart in the source
[15] = in vivo; details: Sprague-Dawley, rat, iv, 1 mg/kg; remark: listed apart in the source
[16] = physchem
[17] = in vivo; details: Sprague-Dawley, rat, iv, 1 mg/kg; remark: listed apart in the source
[18] = in vivo; details: Sprague-Dawley, rat, iv, 1 mg/kg; remark: listed apart in the source
[19] = in vivo; details: Sprague-Dawley, rat, iv, 1 mg/kg; remark: listed apart in the source
[20] = molecular target: T2, Leukotriene A-4 hydrolase (Homo sapiens, UniProt P09960); experiment: Inhibition of LTA4H (unknown origin)
T2 sequence (P09960 whole entry): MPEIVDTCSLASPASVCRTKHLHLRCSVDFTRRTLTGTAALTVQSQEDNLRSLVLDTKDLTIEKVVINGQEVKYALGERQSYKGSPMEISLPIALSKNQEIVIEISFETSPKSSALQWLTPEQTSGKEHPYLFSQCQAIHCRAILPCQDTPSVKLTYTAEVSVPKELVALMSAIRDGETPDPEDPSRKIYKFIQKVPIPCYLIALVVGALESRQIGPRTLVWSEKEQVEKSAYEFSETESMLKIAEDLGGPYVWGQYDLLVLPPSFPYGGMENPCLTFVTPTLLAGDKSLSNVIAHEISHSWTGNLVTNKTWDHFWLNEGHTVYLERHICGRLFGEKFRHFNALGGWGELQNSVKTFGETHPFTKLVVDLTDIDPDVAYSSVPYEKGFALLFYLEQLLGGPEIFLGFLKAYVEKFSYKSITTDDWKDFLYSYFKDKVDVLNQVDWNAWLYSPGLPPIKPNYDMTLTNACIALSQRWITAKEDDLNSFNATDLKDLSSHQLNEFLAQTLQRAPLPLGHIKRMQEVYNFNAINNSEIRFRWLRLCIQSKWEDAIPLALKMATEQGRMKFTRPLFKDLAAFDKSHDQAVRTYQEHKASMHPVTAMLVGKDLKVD

[21] = molecular target: T2, Leukotriene A-4 hydrolase; experiment: Inhibition of LTA4H in human blood assessed as LTB4 production; assay type: tissue-based
[22] = Inhibition of calcium ionophore A23187-stimulated LTB4 release in C57BL/6 mouse model at 10 mg/kg, po bid measured after 2 hrs; assay type: functional

T1 sequence (Q12809 whole entry): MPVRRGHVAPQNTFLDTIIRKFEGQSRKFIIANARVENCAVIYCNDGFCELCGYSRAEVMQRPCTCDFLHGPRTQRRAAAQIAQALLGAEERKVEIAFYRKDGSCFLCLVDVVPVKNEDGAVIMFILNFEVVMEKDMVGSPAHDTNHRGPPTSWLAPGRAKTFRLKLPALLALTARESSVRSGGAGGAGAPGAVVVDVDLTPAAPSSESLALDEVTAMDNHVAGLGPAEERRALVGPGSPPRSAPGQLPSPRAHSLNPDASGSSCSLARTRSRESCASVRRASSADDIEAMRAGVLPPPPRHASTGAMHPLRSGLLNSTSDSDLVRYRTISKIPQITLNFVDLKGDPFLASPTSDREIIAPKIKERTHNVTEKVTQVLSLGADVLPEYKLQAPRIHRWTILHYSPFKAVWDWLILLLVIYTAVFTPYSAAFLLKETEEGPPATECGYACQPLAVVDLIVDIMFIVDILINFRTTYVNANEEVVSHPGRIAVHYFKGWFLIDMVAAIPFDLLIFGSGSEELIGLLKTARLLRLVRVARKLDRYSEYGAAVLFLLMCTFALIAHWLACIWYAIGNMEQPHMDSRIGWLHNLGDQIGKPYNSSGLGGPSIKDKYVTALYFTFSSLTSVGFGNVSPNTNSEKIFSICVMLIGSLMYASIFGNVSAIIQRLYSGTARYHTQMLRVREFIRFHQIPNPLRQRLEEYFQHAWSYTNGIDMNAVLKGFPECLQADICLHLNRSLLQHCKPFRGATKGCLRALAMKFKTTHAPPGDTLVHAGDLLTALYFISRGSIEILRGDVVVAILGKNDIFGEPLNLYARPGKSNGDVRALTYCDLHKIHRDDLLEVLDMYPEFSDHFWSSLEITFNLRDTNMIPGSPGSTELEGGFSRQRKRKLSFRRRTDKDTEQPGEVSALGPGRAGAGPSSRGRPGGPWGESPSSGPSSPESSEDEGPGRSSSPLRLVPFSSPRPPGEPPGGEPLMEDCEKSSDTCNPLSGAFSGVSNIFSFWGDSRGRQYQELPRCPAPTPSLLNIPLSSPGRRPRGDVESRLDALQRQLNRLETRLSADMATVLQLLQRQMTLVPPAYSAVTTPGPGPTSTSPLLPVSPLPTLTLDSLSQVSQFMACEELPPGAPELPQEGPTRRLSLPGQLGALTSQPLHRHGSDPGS

Row | solubility [1] [µM] | microsomal CLint [3] [µL/min/mg] | microsomal CLint [4] [µL/min/mg] | microsomal CLint [5] [µL/min/mg] | logD [6] | Papp A→B [7] [×10⁻⁶ cm/s] | clearance [10] [mL/min/kg] | AUC(0-inf) [11] [µM·h] | bioavailability [12] [%] | Vd [15] [L/kg] | Cmax [17] [nM] | MRT [18] [h] | concentration at 24 h [19] [nM] | SMILES | IC50 [2] [µM] | IC50 [8] [µM] | further results
1 | 30 (≈ 8.86 µg/mL) | 246 | 396 | 266 | 3 | 34 | – | – | – | – | – | – | – | Cc1ccc(Oc2ccc(-c3nnn(CCN)n3)cc2)cc1 | 6 | – | –
2 | – | – | – | – | – | 23 | – | – | – | – | – | – | – | N[C@@H](CCO)Cn1nnc(-c2ccc(Oc3ncc(Cl)cc3F)cc2)n1 | – | – | –
3 | > 1000 | < 25 | < 25 | < 25 | 2.3 | 28 | 9 | 14.7 | 100 | 3 | 1300 | 5.3 | 52 | N[C@H](CO)Cn1nnc(-c2ccc(Oc3ncc(Cl)cc3F)cc2)n1 | > 30 | 30 | IC50 [9]: 28 µM; concentration at 24 h ([13]; blood): 134 nM; concentration at 2 h ([14]; blood): 2980 nM; pKa [16]: 7.1
4 | 870 (≈ 329 µg/mL) | 29 | < 25 | < 25 | 1.8 | 9 | 16 | 4.2 | 49 | 21 | 403 | 23 | 23 | N[C@H](CO)Cc1nc(-c2ccc(Oc3ccc(-c4cc[nH]n4)cn3)cc2)no1 | > 30 | > 30 | IC50 [9]: > 100 µM; concentration at 24 h ([13]; blood): 116 nM; concentration at 2 h ([14]; blood): 800 nM
5 | – | – | – | – | – | – | – | – | – | – | – | – | – | CC(=O)N[C@H]1C[C@H]2CC[C@@H](C1)N2Cc1ccc(Oc2nc3ncccc3s2)cc1 | – | – | IC50 [20]: 0.003 µM; IC50 [21]: 0.042 µM
6 | 580 (≈ 220 µg/mL) | 145 | 40 | 94 | 2.4 | 21 | – | – | – | – | – | – | – | N[C@H](CCO)Cn1nnc(-c2ccc(Oc3ncc(Cl)cc3F)cc2)n1 | > 30 | – | –
7 | 620 (≈ 244 µg/mL) | < 25 | < 25 | < 25 | 0.5 | 1.8 | – | – | – | – | – | – | – | N[C@@H](CC(=O)O)Cn1nnc(-c2ccc(Oc3ncc(Cl)cc3F)cc2)n1 | – | – | concentration at 24 h ([13]; in vivo): 184 nM; concentration at 2 h ([14]; in vivo): 1290 nM; inhibition in vivo at 10 mg/kg [22]: 97%
8 | 520 (≈ 190 µg/mL) | < 25 | < 25 | < 25 | 2.3 | 25 | 134 | 0.369 | 37 | 36 | 42 | 4.5 | 2 | N[C@@H](CO)Cn1nnc(-c2ccc(Oc3ncc(Cl)cc3F)cc2)n1 | > 30 | > 30 | pKa [16]: 7.1
9 | – | – | – | – | – | – | – | – | – | – | – | – | – | O=C(O)c1ccc(CN2C[C@@H]3C[C@H]2CN3Cc2ccc(Oc3ccc(-c4ncco4)cc3)cc2)cc1 [ACEBILUSTAT] | – | – | IC50 [20]: 0.003 µM; IC50 [21]: 0.135 µM
